Assay results: the CheMixHub viscosity set
Several values for one entry are separate records, joined by “and”; a condition that tells them apart may be missing. Identical values can stand only once.

Experiment: xn = mol fraction of the nth substance listed

CC(C)(N)CO + O
viscosity
Conditions	303.15 K	308.15 K	313.15 K	318.15 K	323.15 K
100 kPa, x1 = 0.01	–	–	0.77 mPa·s	–	–
100 kPa, x1 = 0.022	–	–	0.93 mPa·s	–	–
100 kPa, x1 = 0.048	–	–	1.36 mPa·s	–	–
100 kPa, x1 = 0.12	–	–	3.15 mPa·s	–	–
101 kPa, x1 = 0.0105	0.88 mPa·s	0.79 mPa·s	0.72 mPa·s	0.65 mPa·s	0.52 mPa·s
101 kPa, x1 = 0.0539	1.8 mPa·s	1.59 mPa·s	1.39 mPa·s	1.23 mPa·s	1 mPa·s
101 kPa, x1 = 0.0728	2.48 mPa·s	2.1 mPa·s	1.8 mPa·s	1.56 mPa·s	1.29 mPa·s
101 kPa, x1 = 0.1	3.54 mPa·s	2.74 mPa·s	2.29 mPa·s	1.96 mPa·s	1.7 mPa·s and 1.95 mPa·s
101 kPa, x1 = 0.1571	6.33 mPa·s	4.28 mPa·s	3.11 mPa·s	2.86 mPa·s	2.58 mPa·s
101 kPa, x1 = 0.2	11.06 mPa·s	–	6.65 mPa·s	–	4.14 mPa·s
101 kPa, x1 = 0.2559	13.3 mPa·s	7.93 mPa·s	5.49 mPa·s	5.09 mPa·s	4.51 mPa·s
101 kPa, x1 = 0.3	20.33 mPa·s	–	11.74 mPa·s	–	7.18 mPa·s
101 kPa, x1 = 0.3532	23.78 mPa·s	16.16 mPa·s	12.24 mPa·s	9.26 mPa·s	7.5 mPa·s
101 kPa, x1 = 0.4	32.25 mPa·s	–	18.35 mPa·s	–	11.9 mPa·s
101 kPa, x1 = 0.4546	41.28 mPa·s	27.92 mPa·s	20.29 mPa·s	15.33 mPa·s	10.88 mPa·s
101 kPa, x1 = 0.5	53.64 mPa·s	–	25.49 mPa·s	–	15.29 mPa·s
101 kPa, x1 = 0.5537	56.6 mPa·s	38.93 mPa·s	28.36 mPa·s	20.9 mPa·s	14.59 mPa·s
101 kPa, x1 = 0.6	60.63 mPa·s	–	33.17 mPa·s	–	16.56 mPa·s
101 kPa, x1 = 0.658	71.44 mPa·s	49.28 mPa·s	35.14 mPa·s	25.89 mPa·s	18.35 mPa·s
101 kPa, x1 = 0.7	82.98 mPa·s	–	43.03 mPa·s	–	20.8 mPa·s
101 kPa, x1 = 0.7001	76.44 mPa·s	53.22 mPa·s	37.3 mPa·s	27.62 mPa·s	19.8 mPa·s
101 kPa, x1 = 0.8	91.29 mPa·s	–	46.27 mPa·s	–	22.2 mPa·s
101 kPa, x1 = 0.8108	85.3 mPa·s	57.86 mPa·s	41.82 mPa·s	31.42 mPa·s	22.59 mPa·s
101 kPa, x1 = 0.9	96.39 mPa·s	–	47.42 mPa·s	–	23.4 mPa·s
101 kPa, x1 = 0.9082	88.75 mPa·s	60 mPa·s	43 mPa·s	32.18 mPa·s	22.98 mPa·s
101.33 kPa, x1 = 0.048	1.866 mPa·s	–	1.405 mPa·s	–	1.099 mPa·s
101.33 kPa, x1 = 0.08	3.053 mPa·s	–	2.168 mPa·s	–	1.621 mPa·s

CCCCN(CCCC)CCCC + CCCO
viscosity [mPa·s]
Conditions	298.15 K	303.15 K	308.15 K	313.15 K	318.15 K	323.15 K
101.3 kPa, x1 = 0.0929	–	1.75	–	1.364	–	–
101.3 kPa, x1 = 0.1877	–	1.712	–	1.328	–	–
101.3 kPa, x1 = 0.2897	–	–	–	1.289	–	–
101.3 kPa, x1 = 0.3991	–	1.605	–	1.245	–	–
101.3 kPa, x1 = 0.5176	–	1.529	–	–	–	–
101.3 kPa, x1 = 0.616	–	1.462	–	–	–	–
101.3 kPa, x1 = 0.7064	–	1.392	–	–	–	–
101.3 kPa, x1 = 0.8055	–	1.307	–	–	–	–
101.3 kPa, x1 = 0.8864	–	1.252	–	–	–	–
101.33 kPa, x1 = 0.0994	–	–	–	1.412	–	1.318
101.33 kPa, x1 = 0.1089	1.974	–	1.622	–	1.465	–
101.33 kPa, x1 = 0.1447	–	1.7	–	1.398	–	1.343
101.33 kPa, x1 = 0.1916	–	–	–	1.375	–	1.342
101.33 kPa, x1 = 0.2045	1.895	–	1.558	–	1.436	–
101.33 kPa, x1 = 0.2539	1.845	1.603	1.519	1.34	1.403	1.315
101.33 kPa, x1 = 0.3026	1.795	1.558	1.481	1.308	1.366	1.283
101.33 kPa, x1 = 0.3485	–	1.517	–	1.277	–	1.247
101.33 kPa, x1 = 0.3584	1.739	–	1.437	–	1.32	–
101.33 kPa, x1 = 0.4003	1.7	1.473	1.407	1.244	1.286	1.206
101.33 kPa, x1 = 0.4469	1.66	1.436	1.375	1.216	1.249	1.17
101.33 kPa, x1 = 0.4987	1.619	1.4	1.342	1.187	1.211	1.133
101.33 kPa, x1 = 0.5417	–	1.372	–	1.165	–	1.104
101.33 kPa, x1 = 0.5569	1.58	–	1.309	–	1.171	–
101.33 kPa, x1 = 0.6053	1.551	1.335	1.284	1.136	1.14	1.065
101.33 kPa, x1 = 0.6587	1.523	–	1.259	–	1.108	–
101.33 kPa, x1 = 0.6973	1.504	1.289	1.242	1.098	1.085	1.012
101.33 kPa, x1 = 0.7606	1.474	–	1.216	–	1.047	–
101.33 kPa, x1 = 0.7832	–	1.251	–	1.066	–	0.962
101.33 kPa, x1 = 0.8067	1.454	–	1.197	–	1.02	–
101.33 kPa, x1 = 0.9104	1.409	–	1.156	–	0.959	–
101.33 kPa, x1 = 0.9361	–	1.189	–	1.013	–	0.873
101.33 kPa, x1 = 0.9688	–	1.177	–	1.004	–	0.858
